Here are results for twelve molecules from patent publication US20220220152A1, “BIVALENT ANTAGONISTS OF INHIBITORS OF APOPTOSIS PROTEINS” (Hepagene Therapeutics (HK) Limited, priority 2019, published 2022).

Experiment [1] deals with T1, cIAP1-BIR3 (Homo sapiens, UniProt Q13490).
T1 construct: cIAP1-BIR3; purchased Reaction Biology APT-11-370
In words: cIAP1-BIR3 fluorescence polarization binding assay. Conditions: FP, probe AbuRPFK-5FAM (SM5F) 5 nM, cIAP1-BIR3 15 nM, 60 min at 25° C. The essentials: (§1)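 Fluorescence polarization competition using 5-carboxyfluorescein-labelled peptide probe AbuRPFK-5FAM; protein and compound preincubated 15 min, probe added, then 60 min at 25° C.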
In general terms: Polarisation of emitted light reports the rotation of a fluorescent probe.

Experiment [2] has as its target T2, XIAP-BIR3 (Homo sapiens, UniProt P98170).
T2 construct: XIAP-BIR3; purchased Reaction Biology APT-11-374
Description: XIAP-BIR3 fluorescence polarization binding assay. Particulars: FP, probe AbuRPFK-5FAM (SM5F) 5 nM, XIAP-BIR3 40 nM, 60 min at 25° C. A digest of the protocol:
as §1

Experiment [3] has as its target T3, cIAP2-BIR3 (Homo sapiens, UniProt Q13489).
T3 construct: cIAP2-BIR3; purchased Reaction Biology APT-11-372
In words: cIAP2-BIR3 fluorescence polarization binding assay. Conditions: FP, probe AbuRPFK-5FAM (SM5F) 5 nM, cIAP2-BIR3 80 nM, 60 min at 25° C. A digest of the protocol:
as §1

Structures are written as SMILES.

T3 sequence (Q13489 238-349 limits assumed): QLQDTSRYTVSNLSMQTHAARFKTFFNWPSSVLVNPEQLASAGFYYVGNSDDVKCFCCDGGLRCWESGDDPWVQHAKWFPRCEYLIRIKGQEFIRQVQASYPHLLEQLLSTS
T1 sequence (Q13490 253-363 limits assumed): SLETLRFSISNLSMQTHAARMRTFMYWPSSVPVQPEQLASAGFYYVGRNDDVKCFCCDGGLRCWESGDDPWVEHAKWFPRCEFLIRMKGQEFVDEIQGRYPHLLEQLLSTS
T2 sequence (P98170 241-356 limits assumed): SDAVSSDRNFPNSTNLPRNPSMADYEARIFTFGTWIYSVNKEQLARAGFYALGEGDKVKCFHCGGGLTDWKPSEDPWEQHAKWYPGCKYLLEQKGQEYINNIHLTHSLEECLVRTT

What is called IC50 is the point on the concentration scale where inhibition reaches its midpoint. In the case of `CN[C@@H](C)C(=O)N[C@H](C(=O)N1CCC[C@H]1C(=O)N[C@@H]1CCOc2c(-c3cccc4c3OCC[C@H]4NC(=O)[C@@H]3CCCN3C(=O)[C@@H](NC(=O)[C@H](C)NC)C3CCCC3)cccc21)C1CCCC1` [Compound V-F, (2S)-1-[(2S)-2-cyclopentyl-2-[(2S)-2-(methylamino)propanamido]acetyl]-N-[(4R)-8-[(4R)-4-[(2S)-1-[(2S)-2-cyclopentyl-2-[(2S)-2-(methylamino)propanamido]acetyl]pyrrolidine-2-amido]-3,4-dihydro-2H-1-benzopyran-8-yl]-3,4-dihydro-2H-1-benzopyran-4-yl]pyrrolidine-2-carboxamide], the IC50 was 1 to 10 nM in experiment [1], 10 to 100 nM in experiment [2] and 10 to 100 nM in experiment [3].
As for `CC[C@H](NC(=O)[C@H](C)NC)C(=O)N1CCC[C@H]1C(=O)N[C@@H]1CCCc2c(Oc3cccc4c3CCC[C@H]4NC(=O)[C@@H]3CCCN3C(=O)[C@H](CC)NC(=O)[C@H](C)NC)cccc21` [Compound X-A], the IC50 in experiment [1] is 1 to 10 nM; in experiment [2] it was 10 to 100 nM; in experiment [3], 10 to 100 nM.
On to `CN[C@@H](C)C(=O)N[C@H](C(=O)N1CCC[C@H]1C(=O)N[C@@H]1CCCc2c(Oc3cccc4c3CCC[C@H]4NC(=O)[C@@H]3CCCN3C(=O)[C@@H](NC(=O)[C@H](C)NC)C3CCCCC3)cccc21)C1CCCCC1` [Compound X, (2S)-1-[(2S)-2-cyclohexyl-2-[(2S)-2-(methylamino)propanamido]acetyl]-N-[(1R)-5-[[(5R)-5-[(2S)-1-[(2S)-2-cyclohexyl-2-[(2S)-2-(methylamino)propanamido]acetyl]pyrrolidine-2-amido]-5,6,7,8-tetrahydronaphthalen-1-yl]oxy]-1,2,3,4-tetrahydronaphthalen-1-yl]pyrrolidine-2-carboxamide], for which the half-inhibitory concentration (IC50) in experiment [1] fell in the range of 1 to 10 nM; in experiment [2], 10 to 100 nM; in experiment [3], 10 to 100 nM.
In the case of `CN[C@@H](C)C(=O)N[C@H](C(=O)N1CCC[C@H]1C(=O)N[C@@H]1CCCc2c(-c3cccc(-c4cccc5c4CCC[C@H]5NC(=O)[C@@H]4CCCN4C(=O)[C@@H](NC(=O)[C@H](C)NC)C(C)C)c3)cccc21)C(C)C` [Compound III-E, (2S)-1-[(2S)-3-methyl-2-[(2S)-2-(methylamino)propanamido]butanoyl]-N-[(1R)-5-[3-[(5R)-5-[(2S)-1-[(2S)-3-methyl-2-[(2S)-2-(methylamino)propanamido]butanoyl]pyrrolidine-2-amido]-5,6,7,8-tetrahydronaphthalen-1-yl]phenyl]-1,2,3,4-tetrahydronaphthalen-1-yl]pyrrolidine-2-carboxamide], the IC50 was 1 to 10 nM in experiment [1], 1 to 10 nM in experiment [2] and 10 to 100 nM in experiment [3].
Regarding `CN[C@@H](C)C(=O)N[C@H](C(=O)N1CCC[C@H]1C(=O)N[C@@H]1CCc2c(OCCOCCOc3cccc4c3CC[C@H]4NC(=O)[C@@H]3CCCN3C(=O)[C@@H](NC(=O)[C@H](C)NC)C3CCCCC3)cccc21)C1CCCCC1` [Compound II-F, (2S)-1-[(2S)-2-cyclohexyl-2-[(2S)-2-(methylamino)propanamido]acetyl]-N-[(1R)-4-[2-(2-[[(1R)-1-[(2S)-1-[(2S)-2-cyclohexyl-2-[(2S)-2-(methylamino)propanamido]acetyl]pyrrolidine-2-amido]-2,3-dihydro-1H-inden-4-yl]oxy]ethoxy)ethoxy]-2,3-dihydro-1H-inden-1-yl]pyrrolidine-2-carboxamide], the IC50 in experiment [1] was in the range of 1 to 10 nM; in experiment [2], 10 to 100 nM; in experiment [3], 10 to 100 nM.
With `CN[C@@H](C)C(=O)N[C@H](C(=O)N1CCC[C@H]1C(=O)N[C@@H]1CCCc2c(Nc3cccc4c3CCC[C@H]4NC(=O)[C@@H]3CCCN3C(=O)[C@@H](NC(=O)[C@H](C)NC)C3CCOCC3)cccc21)C1CCOCC1` [Compound VI-A, (S)-1-((S)-2-((S)-2-(methylamino)propanamido)-2-(tetrahydro-2H-pyran-4-yl)acetyl)-N—((R)-5-(((R)-5-((S)-1-((S)-2-((S)-2-(methylamino)propanamido)-2-(tetrahydro-2H-pyran-4-yl)acetyl)pyrrolidine-2-carboxamido)-5,6,7,8-tetrahydronaphthalen-1-yl)amino)-1,2,3,4-tetrahydronaphthalen-1-yl)pyrrolidine-2-carboxamide], the half-inhibitory concentration (IC50) lay within 1 to 10 nM in experiment [1], 10 to 100 nM in experiment [2] and 10 to 100 nM in experiment [3].
Consider `CN[C@@H](C)C(=O)N[C@H](C(=O)N1CCC[C@H]1C(=O)N[C@@H]1CCOc2c(-c3cccc4c3OCC[C@H]4NC(=O)[C@@H]3CCCN3C(=O)[C@@H](NC(=O)[C@H](C)NC)C3CCCCC3)cccc21)C1CCCCC1` [Compound V-P, (S)-1-((S)-2-cyclohexyl-2-((S)-2-(methylamino)propanamido)acetyl)-N-((4R,4′R)-4′-((S)-1-((S)-2-cyclohexyl-2-((S)-2-(methylamino)propanamido)acetyl)pyrrolidine-2-carboxamido)-[8,8′-bichroman]-4-yl)pyrrolidine-2-carboxamide], for which the IC50 in experiment [1] fell in the range of 1 to 10 nM; in experiment [2] it was 10 to 100 nM; in experiment [3], 10 to 100 nM.
Regarding `CN[C@@H](C)C(=O)N[C@@H](C)C(=O)N1CCC[C@H]1C(=O)N[C@@H]1CCCc2c(-c3cccc(-c4cccc5c4CCC[C@H]5NC(=O)[C@@H]4CCCN4C(=O)[C@H](C)NC(=O)[C@H](C)NC)c3)cccc21` [Compound III-C, (2S)-1-[(2S)-2-[(2S)-2-(methylamino)propanamido]propanoyl]-N-[(1R)-5-[3-[(5R)-5-[(2S)-1-[(2S)-2-[(2S)-2-(methylamino)propanamido]propanoyl]pyrrolidine-2-amido]-5,6,7,8-tetrahydmnaphthalen-1-yl]phenyl]-1,2,3,4-tetrahydmnaphthalen-1-yl]pyrrolidine-2-carboxamide], the IC50 in experiment [1], in experiment [2] and in experiment [3] was 1 to 10 nM in each case.
For `CN[C@@H](C)C(=O)N[C@H](C(=O)N1C[C@@H](O)C[C@H]1C(=O)N[C@@H]1CCCc2c(-c3ccc(-c4cccc5c4CCC[C@H]5NC(=O)[C@@H]4C[C@H](O)CN4C(=O)[C@@H](NC(=O)[C@H](C)NC)C4CCCCC4)cc3)cccc21)C1CCCCC1` [Compound III-K, (2S,4S)-1-[(2S)-2-cyclohexyl-2-[(2S)-2-(methylamino)propanamido]acetyl]-N-[(1R)-5-[4-[(5R)-5-[(2S,4S)-1-[(2S)-2-cyclohexyl-2-[(2S)-2-(methylamino)propanamido]acetyl]-4-hydroxypyrrolidine-2-amido]-5,6,7,8-tetrahydmnaphthalen-1-yl]phenyl]-1,2,3,4-tetrahydronaphthalen-1-yl]-4-hydroxypyrrolidine-2-carboxamide], the 50% inhibitory concentration (IC50) in experiment [1] fell in the range of 1 to 10 nM; in experiment [2] it was 10 to 100 nM; in experiment [3], 1 to 10 nM.
Regarding `CN[C@@H](C)C(=O)N[C@H](C(=O)N1CCC[C@H]1C(=O)N[C@@H]1CCCc2c(OCc3ccc(COc4cccc5c4CCC[C@H]5NC(=O)[C@@H]4CCCN4C(=O)[C@@H](NC(=O)[C@H](C)NC)C4CCCCC4)cc3)cccc21)C1CCCCC1` [Compound I-F, (2S)-1-[(2S)-2-cyclohexyl-2-[(2S)-2-(methylamino)propanamido]acetyl]-N-[(1R)-5-[[4-([[(5R)-5-[(2S)-1-[(2S)-2-cyclohexyl-2-[(2S)-2-(methylamino)propanamido]acetyl]pyrolidine-2-amido]-5,6,7,8-tetrahydronaphthalen-1-yl]oxy]methyl)phenyl]methoxy]-1,2,3,4-tetrahydronaphthalen-1-yl]pyrrolidine-2-carboxamide], the values for the IC50 in experiment [1], in experiment [2] and in experiment [3] were 1 to 10 nM, 100 to 1000 nM and 100 to 1000 nM, respectively.
Regarding `CN[C@@H](C)C(=O)N[C@H](C(=O)N1CCC[C@H]1C(=O)N[C@@H]1CCCc2c1cccc2N1CC2CN(c3cccc4c3CCC[C@H]4NC(=O)[C@@H]3CCCN3C(=O)[C@@H](NC(=O)[C@H](C)NC)C3CCCCC3)CC2C1)C1CCCCC1` (stereo partly drawn) [Compound VIII, (2S)-1-[(2S)-2-cyclohexyl-2-[(2S)-2-(methylamino)propanamido]acetyl]-N-[(1R)-5-[5-[(5R)-5-[(2S)-1-[(2S)-2-cyclohexyl-2-[(2S)-2-(methylamino)propanamido]acetyl]pyrrolidine-2-amido]-5,6,7,8-tetrahydronaphthalen-1-yl]-hexahydropyrrolo[3,4-c]pyrrol-2-yl]-1,2,3,4-tetrahydmnaphthalen-1-yl]pyrrolidine-2-carboxamide], the IC50 in experiment [1] lay in the range of 1 to 10 nM; in experiment [2] it was 10 to 100 nM; in experiment [3] it was 1 to 10 nM.
For `CC[C@H](NC(=O)[C@H](C)NC)C(=O)N1CCC[C@H]1C(=O)N[C@@H]1CCCc2c(-c3ccc(-c4cccc5c4CCC[C@H]5NC(=O)[C@@H]4CCCN4C(=O)[C@H](CC)NC(=O)[C@H](C)NC)cc3)cccc21` [III-I, (2S)-1-[(2S)-2-[(2S)-2-(methylamino)propanamido]butanoy]l-N-[(1R)-5-[4-[(5R)-5-[(2S)-1-[(2S)-2-[(2S)-2-(methylamino)propanamido]butanoyl]pyrrolidine-2-amido]-5,6,7,8-tetrahydronaphthalen-1-yl]phenyl]-1,2,3,4-tetrahydronaphthalen-1-yl]pyrrolidine-2-carboxamide], the half-maximal inhibitory concentration (IC50) in experiment [1] was in the range of 1 to 10 nM; in experiment [2], 10 to 100 nM; in experiment [3], 10 to 100 nM.
